In patent publication US7964624B1, “Inhibitors of serine proteases” (priority 2005, dated 2011) one finds Ki data, which are given here for 45 compounds.

Where only a bound is given, the exact number is not on record here.

The target of the assay is T1, full-length hepatitis C viral protein NS3•4A (Hepatitis C virus genotype 1a, UniProt P27958).
T1 construct: hexa-histidine (N); made in house; host or cells: Sf9 insect cells (baculovirus, pVL1392)
Description: biochemical. The arrangement: species or system HCV sub-type strain 1a. Particulars: Enzyme Assay 2 (HCV NS3 Peptide Cleavage Assay) activity, apparent Ki class.
As for `CNC(=O)C(=O)[C@H](CC1CC1)NC(=O)[C@@H]1C[C@]2(CC(c3cccc(Cl)c3)=NO2)CN1C(=O)[C@@H](NC(=O)CC1CCCCC1)C1(OC)CC1` [Compound 617], the Ki lay in the range of 100 to 500 nM.
Under `CCC[C@H](NC(=O)[C@@H]1C[C@]2(CC(c3cc(Cl)c(OC)cc3OC)=NO2)CN1C(=O)[C@@H](NC(=O)CC1CCCCC1)C(C)(C)C)C(=O)C(N)=O` [Compound 618] stands less than 100 nM; under `CCC[C@H](NC(=O)[C@@H]1C[C@]2(CC(c3cccc4cccnc34)=NO2)CN1C(=O)[C@@H](NC(=O)OC(C)(C)C)C(C)(C)C)C(=O)C(=O)NC1CC1` [Compound 619], less than 100 nM.
Under `CCC[C@H](NC(=O)[C@@H]1C[C@]2(CC(c3cc(Cl)c(OC)cc3C)=NO2)CN1C(=O)[C@@H](NC(=O)CC1CCCCC1)C(C)(C)C)C(=O)C(N)=O` [Compound 620] stands less than 100 nM; under `CCC[C@H](NC(=O)[C@@H]1C[C@]2(CC(c3ccc(F)c(Cl)c3)=NO2)CN1C(=O)[C@@H](NC(=O)CC1CCCCC1)C(C)(C)C)C(=O)C(N)=O` [Compound 621], less than 100 nM; under `CCC[C@H](NC(=O)[C@@H]1C[C@]2(CC(c3cc(Cl)c(OC)cc3C)=NO2)CN1C(=O)[C@@H](NC(=O)CC1CCCCCC1)C(C)(C)C)C(=O)C(N)=O` [Compound 622], 100 to 500 nM.
The result for `CCC[C@H](NC(=O)[C@@H]1C[C@]2(CC(c3ccc(F)c(Cl)c3)=NO2)CN1C(=O)[C@@H](NC(=O)CC1CCCCCC1)C(C)(C)C)C(=O)C(N)=O` [Compound 623] reads less than 100 nM.
Turning to `CCC[C@H](NC(=O)[C@@H]1C[C@]2(CC(c3cc(Cl)c(OC)cc3C)=NO2)CN1C(=O)[C@@H](NC(=O)CC(C)(C)C)C(C)(C)C)C(=O)C(N)=O` [Compound 624], the Ki is 100 to 500 nM.
Under `CCC[C@H](NC(=O)[C@@H]1C[C@]2(CC(c3ccc(F)c(Cl)c3)=NO2)CN1C(=O)[C@@H](NC(=O)CC(C)(C)C)C(C)(C)C)C(=O)C(N)=O` [Compound 625] stands less than 100 nM.
Under `CCC[C@H](NC(=O)[C@@H]1C[C@]2(CC(c3cc(Cl)c(OC)cc3C)=NO2)CN1C(=O)[C@@H](NC(=O)OC(C)(C)C)C(C)(C)C)C(=O)C(N)=O` [Compound 626] stands less than 100 nM; under `CCC[C@H](NC(=O)[C@@H]1C[C@]2(CC(c3ccc(F)c(Cl)c3)=NO2)CN1C(=O)[C@@H](NC(=O)OC(C)(C)C)C(C)(C)C)C(=O)C(N)=O` [Compound 627], less than 100 nM.
The result for `CCC[C@H](NC(=O)[C@@H]1C[C@]2(CC(c3cc(Cl)c(OC)cc3C)=NO2)CN1C(=O)[C@@H](NC(=O)OC(C)(C)C)C(C)(C)C)C(=O)C(=O)NC1CC1` [Compound 628] reads 100 to 500 nM; that for `CCC[C@H](NC(=O)[C@@H]1C[C@]2(CC(c3ccc(F)c(Cl)c3)=NO2)CN1C(=O)[C@@H](NC(=O)OC(C)(C)C)C(C)(C)C)C(=O)C(=O)NC1CC1` [Compound 629], less than 100 nM; that for `CCC[C@H](NC(=O)[C@@H]1C[C@]2(CC(c3cc(Cl)c(OC)cc3C)=NO2)CN1C(=O)[C@@H](NC(=O)OC(C)(C)C)C(C)(C)C)C(=O)C(=O)NC` [Compound 630], 100 to 500 nM.
As to `CCC[C@H](NC(=O)[C@@H]1C[C@]2(CC(c3ccc(F)c(Cl)c3)=NO2)CN1C(=O)[C@@H](NC(=O)OC(C)(C)C)C(C)(C)C)C(=O)C(=O)NC` [Compound 631], the Ki is less than 100 nM.
As for `CCC[C@H](NC(=O)[C@@H]1C[C@]2(CC(c3cc(Cl)ccc3OC)=NO2)CN1C(=O)[C@@H](NC(=O)CC1CCCCC1)C(C)(C)C)C(=O)C(=O)NC` [Compound 632], the Ki was less than 100 nM.
Under `COc1ccc(Cl)cc1C1=NO[C@]2(C1)C[C@@H](C(=O)N[C@@H](CC1CC1)C(=O)C(N)=O)N(C(=O)[C@@H](NC(=O)CC1CCCCC1)C(C)(C)C)C2` [Compound 633] stands less than 100 nM; under `CCC[C@H](NC(=O)[C@@H]1C[C@]2(CC(c3cc(Cl)ccc3OC)=NO2)CN1C(=O)[C@@H](NC(=O)CC1CCCCCC1)C(C)(C)C)C(=O)C(=O)NC` [Compound 634], less than 100 nM; under `COc1ccc(Cl)cc1C1=NO[C@]2(C1)C[C@@H](C(=O)N[C@@H](CC1CC1)C(=O)C(N)=O)N(C(=O)[C@@H](NC(=O)CC1CCCCCC1)C(C)(C)C)C2` [Compound 635], less than 100 nM.
The result for `CCC[C@H](NC(=O)[C@@H]1C[C@]2(CC(c3cc(Cl)ccc3OC)=NO2)CN1C(=O)[C@@H](NC(=O)CC1CCCCC1)C(C)(C)C)C(=O)C(N)=O` [Compound 636] reads less than 100 nM; that for `CCC[C@H](NC(=O)[C@@H]1C[C@]2(CC(c3cc(Cl)ccc3OC)=NO2)CN1C(=O)[C@@H](NC(=O)CC1CCCCCC1)C(C)(C)C)C(=O)C(N)=O` [Compound 637], less than 100 nM.
The result for `CCC[C@H](NC(=O)[C@@H]1C[C@]2(CC(c3cc(Cl)nc4ccccc34)=NO2)CN1C(=O)[C@@H](NC(=O)CC1CCCCC1)C(C)(C)C)C(=O)C(=O)NC1CC1` [Compound 638] reads less than 100 nM.
Take `CCC[C@H](NC(=O)[C@@H]1C[C@]2(CC(c3cc(Cl)nc4ccccc34)=NO2)CN1C(=O)[C@@H](NC(=O)OC1CCCC1)C(C)(C)C)C(=O)C(=O)NC1CC1` [Compound 639]: the Ki is less than 100 nM.
Take `CCC[C@H](NC(=O)[C@@H]1C[C@]2(CC(c3cc(C)c(OC)c(Cl)c3)=NO2)CN1C(=O)[C@@H](NC(=O)CC1CCCCC1)C(C)(C)C)C(=O)C(N)=O` [Compound 640]: the Ki was less than 100 nM.
For the compound `CCC[C@H](NC(=O)[C@@H]1C[C@]2(CC(c3cc(C)c(OC)c(Cl)c3)=NO2)CN1C(=O)[C@@H](NC(=O)CC1CCCCC1)C(C)(C)C)C(=O)C(=O)NC` [Compound 641], the Ki is less than 100 nM.
The result for `CNC(=O)C(=O)[C@H](CC1CC1)NC(=O)[C@@H]1C[C@]2(CC(c3cc(C)c(OC)c(Cl)c3)=NO2)CN1C(=O)[C@@H](NC(=O)CC1CCCCC1)C(C)(C)C` [Compound 642] reads less than 100 nM; that for `CCC[C@H](NC(=O)[C@@H]1C[C@]2(CC(c3cc(Cl)cc(C)c3OC)=NO2)CN1C(=O)[C@@H](NC(=O)CC1CCCCC1)C(C)(C)C)C(=O)C(=O)NC1CC1` [Compound 643], less than 100 nM; that for `CCC[C@H](NC(=O)[C@@H]1C[C@]2(CC(c3cccc4cccnc34)=NO2)CN1C(=O)[C@@H](NC(=O)OC(C)(C)C)C(C)(C)C)C(=O)C(=O)NC` [Compound 644], 100 to 500 nM.
Under `CCC[C@H](NC(=O)[C@@H]1C[C@]2(CC(c3cc(C)c(OC)c(Cl)c3)=NO2)CN1C(=O)[C@@H](NC(=O)OC(C)(C)C)C(C)(C)C)C(=O)C(=O)NC1CC1` [Compound 645] stands less than 100 nM; under `CCC[C@H](NC(=O)[C@@H]1C[C@]2(CC(c3cc(C)c(OC)c(Cl)c3)=NO2)CN1C(=O)[C@@H](NC(=O)OC(C)(C)C)C(C)(C)C)C(=O)C(=O)NC` [Compound 646], less than 100 nM.
The result for `CCC[C@H](NC(=O)[C@@H]1C[C@]2(CC(c3cccc4cccnc34)=NO2)CN1C(=O)[C@@H](NC(=O)OC1CCCC1)C(C)(C)C)C(=O)C(=O)NC` [Compound 647] reads 100 to 500 nM; that for `CCC[C@H](NC(=O)[C@@H]1C[C@]2(CC(c3cccc4cccnc34)=NO2)CN1C(=O)[C@@H](NC(=O)OC1CCCC1)C(C)(C)C)C(=O)C(=O)NC1CC1` [Compound 648], 100 to 500 nM.
In the case of `CCC[C@H](NC(=O)[C@@H]1C[C@]2(CC(c3cc(Cl)ccc3OC)=NO2)CN1C(=O)[C@@H](NC(=O)CC1CCCCCC1)C(C)(C)C)C(=O)C(=O)NC1CC1` [Compound 649], the Ki lay within 100 to 500 nM.
Under `CCC[C@H](NC(=O)[C@@H]1C[C@]2(CC(c3cc(Cl)c(OC)cc3C)=NO2)CN1C(=O)[C@@H](NC(=O)OC1CCCC1)C(C)(C)C)C(=O)C(=O)NC` [Compound 650] stands 100 to 500 nM; under `CCC[C@H](NC(=O)[C@@H]1C[C@]2(CC(c3cc(Cl)c(OC)cc3C)=NO2)CN1C(=O)[C@@H](NC(=O)OC1CCCC1)C(C)(C)C)C(=O)C(N)=O` [Compound 651], 100 to 500 nM; under `CCC[C@H](NC(=O)[C@@H]1C[C@]2(CC(c3ccc(F)c(Cl)c3)=NO2)CN1C(=O)[C@@H](NC(=O)OC1CCCC1)C(C)(C)C)C(=O)C(=O)NC1CC1` [Compound 652], less than 100 nM.
For `CCC[C@H](NC(=O)[C@@H]1C[C@]2(CC(c3ccc(F)c(Cl)c3)=NO2)CN1C(=O)[C@@H](NC(=O)OC1CCCC1)C(C)(C)C)C(=O)C(=O)NC` [Compound 653], the Ki was 100 to 500 nM.
The result for `CCC[C@H](NC(=O)[C@@H]1C[C@]2(CC(c3ccc(F)c(Cl)c3)=NO2)CN1C(=O)[C@@H](NC(=O)OC1CCCC1)C(C)(C)C)C(=O)C(N)=O` [Compound 654] reads less than 100 nM.
Take `CCC[C@H](NC(=O)[C@@H]1C[C@]2(CC(c3cc(Cl)c(OC)cc3OC)=NO2)CN1C(=O)[C@@H](NC(=O)CC1CCCCCC1)C(C)(C)C)C(=O)C(=O)NC` [Compound 655]: the Ki lay in the range of 100 to 500 nM.
Under `CCC[C@H](NC(=O)[C@@H]1C[C@]2(CC(c3cc(Cl)c(OC)cc3OC)=NO2)CN1C(=O)[C@@H](NC(=O)CC1CCCCCC1)C(C)(C)C)C(=O)C(N)=O` [Compound 656] stands 100 to 500 nM; under `CNC(=O)C(=O)[C@H](CC1CC1)NC(=O)[C@@H]1C[C@]2(CC(c3cc(Cl)c(OC)cc3OC)=NO2)CN1C(=O)[C@@H](NC(=O)CC1CCCCC1)C(C)(C)C` [Compound 657], less than 100 nM; under `COc1c(C)cc(C2=NO[C@]3(C2)CC(C(=O)N[C@H](CC2CC2)C(=O)C(N)=O)N(C(=O)[C@@H](NC(=O)CC2CCCCC2)C(C)(C)C)C3)cc1Cl` (stereo partly drawn) [Compound 658], 100 to 500 nM.
The result for `CCC[C@H](NC(=O)[C@@H]1C[C@]2(CC(c3nccc4ccccc34)=NO2)CN1C(=O)[C@@H](NC(=O)OC1CCCC1)C(C)(C)C)C(=O)C(=O)NC1CC1` [Compound 661] reads less than 100 nM.
Consider `CNC(=O)C(=O)[C@H](CC1CC1)NC(=O)[C@@H]1C[C@]2(CC(c3cc(Cl)c(OC)cc3C)=NO2)CN1C(=O)[C@@H](NC(=O)CC1CCCCC1)C(C)(C)C` [Compound 662], for which the Ki is 100 to 500 nM.
As to `CCC[C@H](NC(=O)[C@@H]1C[C@]2(CC(c3cc(Cl)c(OC)cc3C)=NO2)CN1C(=O)[C@@H](NC(=O)OC1CCCC1)C(C)(C)C)C(=O)C(=O)NC1CC1` [Compound 666], the Ki is less than 100 nM.
